In the NIST ThermoML archive (doi:10.1016/j.fluid.2006.07.015):
± gives the expanded uncertainty stated by the source.

Test: activity coefficient (dimensionless); of the first substance listed, at infinite dilution; xn = mol fraction of the nth substance listed
Settings: 101 kPa, Liquid, Chromatography, x1 = 0

Structure (SMILES) | activity coefficient (373.15 K) | activity coefficient (388.15 K) | activity coefficient (403.15 K) | activity coefficient (418.15 K) | activity coefficient (433.15 K)
Cc1ccccc1 [toluene] + CCCCCCCCCCCCCCCCCCC(CCCCCCCCCCCCCCCCCC)CCCCC(CCCCCCCCCCCCCCCCCC)CCCCCCCCCCCCCCCCCC | 0.284 ± 0.036 | 0.284 ± 0.036 | 0.282 ± 0.036 | 0.278 ± 0.036 | 0.275 ± 0.036
CCCc1ccccc1 [propylbenzene] + CCCCCCCCCCCCCCCCCCC(CCCCCCCCCCCCCCCCCC)CCCCC(CCCCCCCCCCCCCCCCCC)CCCCCCCCCCCCCCCCCC | 0.336 ± 0.035 | 0.339 ± 0.035 | 0.336 ± 0.035 | 0.331 ± 0.035 | 0.33 ± 0.035
CCCCc1ccccc1 [butylbenzene] + CCCCCCCCCCCCCCCCCCC(CCCCCCCCCCCCCCCCCC)CCCCC(CCCCCCCCCCCCCCCCCC)CCCCCCCCCCCCCCCCCC | 0.357 ± 0.035 | 0.362 ± 0.035 | 0.359 ± 0.035 | 0.358 ± 0.035 | 0.354 ± 0.035
C[C@@H]1CCCC[C@H]1C [trans-1,2-dimethylcyclohexane] + CCCCCCCCCCCCCCCCCCC(CCCCCCCCCCCCCCCCCC)CCCCC(CCCCCCCCCCCCCCCCCC)CCCCCCCCCCCCCCCCCC | 0.28 ± 0.036 | 0.287 ± 0.036 | 0.29 ± 0.036 | 0.288 ± 0.036 | 0.295 ± 0.036
C[C@H]1CC[C@H](C)CC1 [trans-1,4-dimethylcyclohexane] + CCCCCCCCCCCCCCCCCCC(CCCCCCCCCCCCCCCCCC)CCCCC(CCCCCCCCCCCCCCCCCC)CCCCCCCCCCCCCCCCCC | 0.288 ± 0.036 | 0.295 ± 0.036 | 0.297 ± 0.036 | 0.298 ± 0.036 | 0.299 ± 0.036
CC1CCCCC1 [methylcyclohexane] + CCCCCCCCCCCCCCCCCCC(CCCCCCCCCCCCCCCCCC)CCCCC(CCCCCCCCCCCCCCCCCC)CCCCCCCCCCCCCCCCCC | 0.267 ± 0.036 | 0.273 ± 0.036 | 0.273 ± 0.036 | 0.272 ± 0.036 | 0.275 ± 0.036
C1=CCCCC1 [cyclohexene] + CCCCCCCCCCCCCCCCCCC(CCCCCCCCCCCCCCCCCC)CCCCC(CCCCCCCCCCCCCCCCCC)CCCCCCCCCCCCCCCCCC | 0.239 ± 0.036 | 0.244 ± 0.036 | 0.243 ± 0.036 | 0.241 ± 0.036 | 0.243 ± 0.036
CC(C)CC(C)C [2,4-dimethylpentane] + CCCCCCCCCCCCCCCCCCC(CCCCCCCCCCCCCCCCCC)CCCCC(CCCCCCCCCCCCCCCCCC)CCCCCCCCCCCCCCCCCC | 0.391 ± 0.034 | 0.392 ± 0.034 | 0.394 ± 0.034 | 0.396 ± 0.034 | 0.4 ± 0.034
C[C@@H]1CCCC[C@@H]1C [cis-1,2-dimethylcyclohexane] + CCCCCCCCCCCCCCCCCCC(CCCCCCCCCCCCCCCCCC)CCCCC(CCCCCCCCCCCCCCCCCC)CCCCCCCCCCCCCCCCCC | 0.271 ± 0.036 | 0.277 ± 0.036 | 0.279 ± 0.036 | 0.28 ± 0.036 | 0.285 ± 0.036
CCc1ccccc1 [ethylbenzene] + CCCCCCCCCCCCCCCCCCC(CCCCCCCCCCCCCCCCCC)CCCCC(CCCCCCCCCCCCCCCCCC)CCCCCCCCCCCCCCCCCC | 0.314 ± 0.035 | 0.315 ± 0.035 | 0.313 ± 0.035 | 0.304 ± 0.035 | 0.304 ± 0.035
CCC(C)CC(C)C (stereo not given) [2,4-dimethylhexane] + CCCCCCCCCCCCCCCCCCC(CCCCCCCCCCCCCCCCCC)CCCCC(CCCCCCCCCCCCCCCCCC)CCCCCCCCCCCCCCCCCC | 0.394 ± 0.034 | 0.396 ± 0.034 | 0.396 ± 0.034 | 0.398 ± 0.034 | 0.405 ± 0.034
CC(C)C(C)(C)C [2,2,3-trimethylbutane] + CCCCCCCCCCCCCCCCCCC(CCCCCCCCCCCCCCCCCC)CCCCC(CCCCCCCCCCCCCCCCCC)CCCCCCCCCCCCCCCCCC | 0.34 ± 0.035 | 0.345 ± 0.035 | 0.348 ± 0.035 | 0.349 ± 0.035 | 0.355 ± 0.035
C[C@H]1CC[C@@H](C)CC1 [cis-1,4-dimethylcyclohexane] + CCCCCCCCCCCCCCCCCCC(CCCCCCCCCCCCCCCCCC)CCCCC(CCCCCCCCCCCCCCCCCC)CCCCCCCCCCCCCCCCCC | 0.287 ± 0.036 | 0.294 ± 0.036 | 0.296 ± 0.036 | 0.296 ± 0.036 | 0.3 ± 0.036
CCC(C)C(C)CC (stereo not given) [3,4-dimethylhexane] + CCCCCCCCCCCCCCCCCCC(CCCCCCCCCCCCCCCCCC)CCCCC(CCCCCCCCCCCCCCCCCC)CCCCCCCCCCCCCCCCCC | 0.353 ± 0.035 | 0.357 ± 0.035 | 0.36 ± 0.035 | 0.362 ± 0.035 | 0.366 ± 0.035
C1CCCCCCCCC1 [cyclodecane] + CCCCCCCCCCCCCCCCCCC(CCCCCCCCCCCCCCCCCC)CCCCC(CCCCCCCCCCCCCCCCCC)CCCCCCCCCCCCCCCCCC | 0.269 ± 0.036 | 0.281 ± 0.036 | 0.283 ± 0.036 | 0.287 ± 0.036 | 0.288 ± 0.036
C1CCCCCCC1 [cyclooctane] + CCCCCCCCCCCCCCCCCCC(CCCCCCCCCCCCCCCCCC)CCCCC(CCCCCCCCCCCCCCCCCC)CCCCCCCCCCCCCCCCCC | 0.258 ± 0.036 | 0.264 ± 0.036 | 0.265 ± 0.036 | 0.262 ± 0.036 | 0.264 ± 0.036

Continued, values first:

activity coefficient (373.15 K) | activity coefficient (388.15 K) | activity coefficient (403.15 K) | activity coefficient (418.15 K) | activity coefficient (433.15 K) | Structure (SMILES)
0.418 ± 0.034 | 0.42 ± 0.034 | 0.421 ± 0.034 | 0.423 ± 0.034 | 0.425 ± 0.034 | CCCCCCCCCC [decane] + CCCCCCCCCCCCCCCCCCC(CCCCCCCCCCCCCCCCCC)CCCCC(CCCCCCCCCCCCCCCCCC)CCCCCCCCCCCCCCCCCC
0.456 ± 0.033 | 0.457 ± 0.033 | 0.459 ± 0.033 | 0.46 ± 0.033 | 0.462 ± 0.033 | CCCCCCCCCCCC [dodecane] + CCCCCCCCCCCCCCCCCCC(CCCCCCCCCCCCCCCCCC)CCCCC(CCCCCCCCCCCCCCCCCC)CCCCCCCCCCCCCCCCCC
0.374 ± 0.034 | 0.374 ± 0.034 | 0.374 ± 0.034 | 0.375 ± 0.034 | 0.377 ± 0.034 | C=CCCCCCC [oct-1-ene] + CCCCCCCCCCCCCCCCCCC(CCCCCCCCCCCCCCCCCC)CCCCC(CCCCCCCCCCCCCCCCCC)CCCCCCCCCCCCCCCCCC
0.435 ± 0.033 | 0.436 ± 0.033 | 0.435 ± 0.033 | 0.436 ± 0.033 | 0.436 ± 0.033 | C=CCCCCCCCCC [1-undecene] + CCCCCCCCCCCCCCCCCCC(CCCCCCCCCCCCCCCCCC)CCCCC(CCCCCCCCCCCCCCCCCC)CCCCCCCCCCCCCCCCCC
0.361 ± 0.035 | 0.363 ± 0.035 | 0.365 ± 0.035 | 0.367 ± 0.034 | 0.37 ± 0.03 | CCCCCCC [heptane] + CCCCCCCCCCCCCCCCCCC(CCCCCCCCCCCCCCCCCC)CCCCC(CCCCCCCCCCCCCCCCCC)CCCCCCCCCCCCCCCCCC
0.404 ± 0.034 | 0.406 ± 0.034 | 0.406 ± 0.034 | 0.417 ± 0.034 | 0.419 ± 0.034 | CCC#CCC [3-hexyne] + CCCCCCCCCCCCCCCCCCC(CCCCCCCCCCCCCCCCCC)CCCCC(CCCCCCCCCCCCCCCCCC)CCCCCCCCCCCCCCCCCC
0.436 ± 0.033 | 0.438 ± 0.033 | 0.44 ± 0.033 | 0.442 ± 0.033 | 0.444 ± 0.033 | CCCCCCCCCCC [undecane] + CCCCCCCCCCCCCCCCCCC(CCCCCCCCCCCCCCCCCC)CCCCC(CCCCCCCCCCCCCCCCCC)CCCCCCCCCCCCCCCCCC
0.479 ± 0.033 | 0.479 ± 0.033 | 0.479 ± 0.033 | 0.48 ± 0.033 | 0.481 ± 0.033 | CCCCCCCCCCCCC [tridecane] + CCCCCCCCCCCCCCCCCCC(CCCCCCCCCCCCCCCCCC)CCCCC(CCCCCCCCCCCCCCCCCC)CCCCCCCCCCCCCCCCCC
0.354 ± 0.035 | 0.355 ± 0.035 | 0.356 ± 0.035 | 0.357 ± 0.035 | 0.359 ± 0.035 | C=CCCCC [hex-1-ene] + CCCCCCCCCCCCCCCCCCC(CCCCCCCCCCCCCCCCCC)CCCCC(CCCCCCCCCCCCCCCCCC)CCCCCCCCCCCCCCCCCC
0.411 ± 0.034 | 0.413 ± 0.034 | 0.413 ± 0.034 | 0.416 ± 0.034 | 0.418 ± 0.034 | C=CCCCCCCCC [1-decene] + CCCCCCCCCCCCCCCCCCC(CCCCCCCCCCCCCCCCCC)CCCCC(CCCCCCCCCCCCCCCCCC)CCCCCCCCCCCCCCCCCC
0.38 ± 0.034 | 0.381 ± 0.034 | 0.382 ± 0.034 | 0.384 ± 0.034 | 0.386 ± 0.034 | CCCCCCCC [octane] + CCCCCCCCCCCCCCCCCCC(CCCCCCCCCCCCCCCCCC)CCCCC(CCCCCCCCCCCCCCCCCC)CCCCCCCCCCCCCCCCCC
0.411 ± 0.034 | 0.407 ± 0.034 | 0.401 ± 0.034 | 0.399 ± 0.034 | 0.398 ± 0.034 | C#CCCCCC [1-heptyne] + CCCCCCCCCCCCCCCCCCC(CCCCCCCCCCCCCCCCCC)CCCCC(CCCCCCCCCCCCCCCCCC)CCCCCCCCCCCCCCCCCC
0.344 ± 0.035 | 0.346 ± 0.035 | 0.348 ± 0.035 | 0.351 ± 0.035 | 0.355 ± 0.035 | CCCCCC [hexane] + CCCCCCCCCCCCCCCCCCC(CCCCCCCCCCCCCCCCCC)CCCCC(CCCCCCCCCCCCCCCCCC)CCCCCCCCCCCCCCCCCC
0.354 ± 0.035 | 0.355 ± 0.035 | 0.356 ± 0.035 | 0.357 ± 0.035 | 0.359 ± 0.035 | C=CCCCCC [1-heptene] + CCCCCCCCCCCCCCCCCCC(CCCCCCCCCCCCCCCCCC)CCCCC(CCCCCCCCCCCCCCCCCC)CCCCCCCCCCCCCCCCCC
